Laboratory results reported in ChEMBL document CHEMBL1201862, “PubChem BioAssay data set” (2004).
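Dose response: 5 concentrations. Exposure: 48 h. Format: 96-well plates. Endpoint: linear interpolation; highest concentration if not reached. GI50 marks 50% less growth.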 The source made the active and inactive calls. Cut-off read from the data, not from the text of the source: active = GI50 up to about 1.1 µM and inactive = higher.

Key:
Assay in all cases: inhibition of tumour cell growth, NCI panel, 48 h
786-0 = tested on: 786-0
HCC 2998 = tested on: HCC 2998
HOP-92 = tested on: HOP-92
HT-29 = tested on: HT-29
K562 = tested on: K562
MDA-MB-435 = tested on: MDA-MB-435
MDA-N = tested on: MDA-N
Malme-3M = tested on: Malme-3M
NCI-H460 = tested on: NCI-H460
OVCAR-5 = tested on: OVCAR-5
OVCAR-8 = tested on: OVCAR-8
SK-MEL-28 = tested on: SK-MEL-28
SK-MEL-2 = tested on: SK-MEL-2
SNB-19 = tested on: SNB-19
SW-620 = tested on: SW-620
TK-10 = tested on: TK-10
U-251 = tested on: U-251
NCI-H23 = tested on: NCI-H23
RPMI-8226 = tested on: RPMI-8226
DU-145 = tested on: DU-145

SMILES | GI50 (786-0) | GI50 (HCC 2998) | GI50 (HOP-92) | GI50 (HT-29) | GI50 (K562) | GI50 (MDA-MB-435) | GI50 (MDA-N) | GI50 (Malme-3M) | GI50 (NCI-H460) | GI50 (OVCAR-5) | GI50 (OVCAR-8) | GI50 (SK-MEL-28) | GI50 (SK-MEL-2) | GI50 (SNB-19) | GI50 (SW-620) | GI50 (TK-10) | GI50 (U-251) | GI50 (NCI-H23) | GI50 (RPMI-8226) | GI50 (DU-145)
COc1cccc(NC(=O)c2c(SC)c(C#N)c(=O)n(N)c2N)c1 | 28.6 µM (inactive) | > 100 µM (inactive) | 47.4 µM (inactive) | 52 µM (inactive) | 45.9 µM (inactive) | 97.5 µM (inactive) | > 100 µM (inactive) | > 100 µM (inactive) | 67.1 µM (inactive) | 31.7 µM (inactive) | 47.9 µM (inactive) | > 100 µM (inactive) | > 100 µM (inactive) | 4.52 µM (inactive) | 51.2 µM (inactive) | > 100 µM (inactive) | 68.4 µM (inactive) |  |  | 
C=C1C(=O)O[C@@H]2[C@H]1CC[C@H](C)[C@]1(O)CCC(=O)[C@@]21C [CORONOPILIN] | > 10 µM (inactive) | > 10 µM (inactive) | > 10 µM (inactive) | > 10 µM (inactive) | > 10 µM (inactive) | > 10 µM (inactive) | > 10 µM (inactive) | > 10 µM (inactive) |  |  | > 10 µM (inactive) | > 10 µM (inactive) | > 10 µM (inactive) | > 10 µM (inactive) | > 10 µM (inactive) | > 10 µM (inactive) | > 10 µM (inactive) | 4.16 µM (inactive) | > 10 µM (inactive) | 
C[C@@H]1CCC[C@]2(C)O[C@H]2CC[C@@](C)(O)[C@@H]2CC3=C(CO)C(=O)O[C@H]3[C@H]1O2 | > 50 µM (inactive) | > 50 µM (inactive) | > 50 µM (inactive) | > 50 µM (inactive) | > 50 µM (inactive) | > 50 µM (inactive) |  |  | > 50 µM (inactive) | > 50 µM (inactive) | > 50 µM (inactive) | > 50 µM (inactive) | > 50 µM (inactive) | > 50 µM (inactive) | > 50 µM (inactive) | > 50 µM (inactive) | > 50 µM (inactive) | > 50 µM (inactive) | 28.1 µM (inactive) | > 50 µM (inactive)
O=[N+]([O-])C(C(Cl)=C(Cl)Cl)=C(N1CCCCC1)N1CCCCC1 | > 100 µM (inactive) | > 100 µM (inactive) |  | > 100 µM (inactive) | 90.2 µM (inactive) |  | 68.2 µM (inactive) | 39.5 µM (inactive) | > 100 µM (inactive) | > 100 µM (inactive) | > 100 µM (inactive) | > 100 µM (inactive) |  | 1.95 µM (inactive) | > 100 µM (inactive) | > 100 µM (inactive) | > 100 µM (inactive) | > 100 µM (inactive) | 84.1 µM (inactive) | > 100 µM (inactive)
CCC[C@H](C)C[C@H](C)C[C@H](C)/C=C(\C)[C@@H](O)[C@@H](C)C(=O)CC | 20.1 µM (inactive) | 17 µM (inactive) | 20.8 µM (inactive) | 19.5 µM (inactive) | 18.3 µM (inactive) | 20.6 µM (inactive) |  | 18.5 µM (inactive) | 24 µM (inactive) | 19.9 µM (inactive) | 20.3 µM (inactive) | 18.7 µM (inactive) | 24.9 µM (inactive) | 20.3 µM (inactive) | 20.3 µM (inactive) | 23.2 µM (inactive) | 22.4 µM (inactive) | 18.9 µM (inactive) | 23.2 µM (inactive) | 23.5 µM (inactive)
O=C(/C=C(\C(=O)c1cccs1)c1cccs1)c1ccc(C(=O)/C=C(\C(=O)c2cccs2)c2cccs2)cc1 | > 100 µM (inactive) | > 100 µM (inactive) |  | > 100 µM (inactive) | > 100 µM (inactive) | > 100 µM (inactive) |  |  | > 100 µM (inactive) |  | > 100 µM (inactive) | > 100 µM (inactive) | > 100 µM (inactive) | > 100 µM (inactive) | > 100 µM (inactive) | > 100 µM (inactive) | > 100 µM (inactive) |  | > 100 µM (inactive) | > 100 µM (inactive)
O=C(Nc1nnc(-c2ccccc2)o1)C(SC(=S)N1CCCC1)c1ccccc1 (stereo unspecified) | 26.4 µM (inactive) |  |  | 35.1 µM (inactive) | 24.4 µM (inactive) | 29.7 µM (inactive) | 32.1 µM (inactive) | 45 µM (inactive) | 16.4 µM (inactive) | 36.4 µM (inactive) | 32 µM (inactive) | 49 µM (inactive) | 25.5 µM (inactive) | 38.5 µM (inactive) | 49.1 µM (inactive) | 51.9 µM (inactive) | 23.3 µM (inactive) | 24.3 µM (inactive) | 24.3 µM (inactive) | 30.6 µM (inactive)
CN(C)C1(N(C)C)Oc2c(c(=O)n(C)c(=O)n2C)C(c2ccc(F)cc2)C1(F)F (stereo unspecified) | > 100 µM (inactive) | > 100 µM (inactive) | > 100 µM (inactive) |  |  | > 100 µM (inactive) |  |  | > 100 µM (inactive) | > 100 µM (inactive) |  | > 100 µM (inactive) | > 100 µM (inactive) | > 100 µM (inactive) | > 100 µM (inactive) | > 100 µM (inactive) | > 100 µM (inactive) | > 100 µM (inactive) | > 100 µM (inactive) | > 100 µM (inactive)
O=CCC1CCCCC1 | > 100 µM (inactive) |  | > 100 µM (inactive) |  | > 100 µM (inactive) | > 100 µM (inactive) | > 100 µM (inactive) | > 100 µM (inactive) | > 100 µM (inactive) | > 100 µM (inactive) |  | > 100 µM (inactive) | > 100 µM (inactive) | > 100 µM (inactive) | > 100 µM (inactive) |  |  | > 100 µM (inactive) | > 100 µM (inactive) | 
O=C(N/C(=C/c1ccc(Cl)cc1Cl)c1nc2ccccc2s1)c1ccccc1 | 12.9 µM (inactive) |  | 52.6 µM (inactive) | 19.3 µM (inactive) | 18.5 µM (inactive) | 15.6 µM (inactive) |  | 16.4 µM (inactive) | 17.8 µM (inactive) | 17.3 µM (inactive) | 18.6 µM (inactive) | 15.6 µM (inactive) | 17.7 µM (inactive) | 19.5 µM (inactive) | 10.7 µM (inactive) | 21 µM (inactive) | 2.5 µM (inactive) | 11.8 µM (inactive) | 12.1 µM (inactive) | 16.2 µM (inactive)
CC(=O)O[C@@]12CO[C@@H]1C[C@H](O)[C@@]1(C)C(=O)[C@H](O)C3=C(C)[C@@H](OC(=O)[C@H](O)[C@@H](NC(=O)OC(C)(C)C)c4ccccc4)C[C@@](O)([C@@H](OC(=O)c4ccccc4)[C@H]21)C3(C)C [DOCETAXEL] | < 0.01 µM (active) | < 0.01 µM (active) | 9.04 µM (inactive) | < 0.01 µM (active) | < 0.01 µM (active) | 0.000149 µM (active) | 0.0001 µM (active) | > 10 µM (inactive) | 0.00291 µM (active) | < 0.01 µM (active) | < 0.01 µM (active) |  |  | 43.2 µM (inactive) | < 0.01 µM (active) | 0.225 µM (active) | < 0.01 µM (active) | < 0.01 µM (active) | < 0.01 µM (active) | 
CCCc1cn2c(/C=N/NC(=N)N)c(-c3ccc(Cl)c([N+](=O)[O-])c3)nc2s1 | 1.8 µM (inactive) |  | 1.68 µM (inactive) | 0.826 µM (active) | 1.37 µM (inactive) | 1.75 µM (inactive) |  | 1.68 µM (inactive) | 2.1 µM (inactive) | 1.55 µM (inactive) | 1.82 µM (inactive) | 1.64 µM (inactive) | 1.71 µM (inactive) | 1.5 µM (inactive) | 1.07 µM (active) | 1.54 µM (inactive) | 1.63 µM (inactive) | 1.74 µM (inactive) | 1.64 µM (inactive) | 1.77 µM (inactive)
O=C1C=CC2(O[C@H](c3ccccc3)[C@@H](c3ccccc3)O2)C(SC(=O)c2ccccc2)C1 (stereo partly specified) | 0.385 µM (active) |  |  | 2.03 µM (inactive) | 1.32 µM (inactive) | 2.02 µM (inactive) | 1.43 µM (inactive) | 2.27 µM (inactive) | 3.02 µM (inactive) | 1.69 µM (inactive) | 0.201 µM (active) | 1.79 µM (inactive) | 1.72 µM (inactive) | 2.19 µM (inactive) | 0.288 µM (active) | 1.68 µM (inactive) | 1.56 µM (inactive) | 1.63 µM (inactive) | 0.979 µM (active) | 3.34 µM (inactive)
CNC(=O)CCNC(=O)CCC(=O)OC | > 100 µM (inactive) |  |  | > 100 µM (inactive) | > 100 µM (inactive) | > 100 µM (inactive) | > 100 µM (inactive) |  | > 100 µM (inactive) | > 100 µM (inactive) | > 100 µM (inactive) | > 100 µM (inactive) | > 100 µM (inactive) | > 100 µM (inactive) | > 100 µM (inactive) | > 100 µM (inactive) | > 100 µM (inactive) | > 100 µM (inactive) |  | > 100 µM (inactive)
OC1[C@H]([C@H]2CCCC[C@@H]2O)CCC[C@@H]1[C@@H]1CCCC[C@H]1O (stereo partly specified) | > 100 µM (inactive) | > 100 µM (inactive) | > 100 µM (inactive) | > 100 µM (inactive) | > 100 µM (inactive) |  |  | > 100 µM (inactive) | > 100 µM (inactive) | > 100 µM (inactive) | > 100 µM (inactive) | > 100 µM (inactive) | > 100 µM (inactive) | > 100 µM (inactive) | > 100 µM (inactive) | > 100 µM (inactive) | > 100 µM (inactive) | > 100 µM (inactive) | > 100 µM (inactive) | 
Cc1ccc2c(c1)C(O)(c1ccccc1)CCS2 (stereo unspecified) | 32.5 µM (inactive) |  | 17.7 µM (inactive) | 25.4 µM (inactive) | 20.2 µM (inactive) | 27.7 µM (inactive) |  | 32.9 µM (inactive) | 34.8 µM (inactive) | 27.6 µM (inactive) | 36.7 µM (inactive) | 37.6 µM (inactive) | 25.2 µM (inactive) | 59.6 µM (inactive) | 31 µM (inactive) | 32.1 µM (inactive) | 21.7 µM (inactive) | 28.5 µM (inactive) |  | 46.3 µM (inactive)
